The text below walks through data of patent publication US10738043B2, “GLS1 inhibitors for treating disease” (Board of Regents, The University of Texas System, priority 2015, dated 2020).

Broadly, the IC50 is the concentration needed to halve the response being measured.

The target of assay [1] is T1, GLS1 (purified recombinant human GAC) (Homo sapiens, UniProt O94925).
T1 sequence (O94925 55-598 isoform O94925-3 limits assumed): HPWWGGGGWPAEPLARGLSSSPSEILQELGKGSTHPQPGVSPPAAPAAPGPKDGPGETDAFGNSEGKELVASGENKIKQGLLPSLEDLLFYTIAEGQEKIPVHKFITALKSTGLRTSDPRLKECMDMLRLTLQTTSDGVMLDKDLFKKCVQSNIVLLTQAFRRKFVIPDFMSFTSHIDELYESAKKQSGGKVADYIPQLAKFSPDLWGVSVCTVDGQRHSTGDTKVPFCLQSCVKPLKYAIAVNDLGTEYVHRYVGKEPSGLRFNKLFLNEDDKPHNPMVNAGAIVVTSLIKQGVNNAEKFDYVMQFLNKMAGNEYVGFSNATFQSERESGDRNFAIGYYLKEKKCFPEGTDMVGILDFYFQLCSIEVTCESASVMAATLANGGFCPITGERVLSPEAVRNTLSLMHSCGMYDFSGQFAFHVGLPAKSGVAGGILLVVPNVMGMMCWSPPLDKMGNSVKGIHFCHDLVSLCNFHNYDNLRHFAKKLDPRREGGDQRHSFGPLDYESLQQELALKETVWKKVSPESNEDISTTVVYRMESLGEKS
Put plainly: GLS1 Enzymatic Activity Assay (dual-coupled enzymatic assay). The assay is classed as biochemical. Conditions: 50 mM potassium phosphate, 1 mM glutamine, read-out: IC50 against GLS1. On the procedure: GLS1 Enzymatic Activity Assay
The inhibition of purified recombinant human GAC by varying concentrations of inhibitors is assessed via a dual-coupled enzymatic assay. The glutamate produced by the glutaminase reaction is used by glutamate oxidase to produce α-ketoglutarate, ammonia, and hydrogen peroxide, with this hydrogen peroxide subsequently being used by horseradish peroxidase to produce resorufin in the presence of Amplex UltraRed. The assay buffer consisted of 50 mM HEPES (pH 7.4), 0.25 mM EDTA and 0.1 mM Triton X-100. GAC was incubated with potassium phosphate (10 minutes at room temperature) prior to incubation with inhibitor (10 minutes at room temperature). The final reaction conditions were as follows: 2 nM GAC, 50 mM potassium phosphate, 100 mU/ml glutamate oxidase (Sigma), 1 mM glutamine (Sigma), 100 mU/ml horseradish peroxidase (Sigma), 75 μM Amplex UltraRed (Life Technologies), and 1% (v/v) DMSO. The production of resorufin was monitored on a Perkin Elmer Envision plate reader (excitation 530 nm, emission 590 nm) either in a kinetics or endpoint mode (at 20 minutes). IC50 values were calculated using a four-parameter logistic curve fit.

The test system of assay [2] is A549 cells. The assay can be described thus: Proliferation Assay (A549 viability, Cell Titer Fluor, 72 hours). The assay is classed as cell-based. Conditions: read-out: EC50 against A549 cell proliferation. On the procedure:
A549 cells were routinely maintained in RPMI 1640 media (Gibco catalog number 11875-093) supplemented with 10% dialyzed fetal bovine serum using a humidified incubator (37° C., 5% CO2 and ambient O2). In preparation for the viability assay, cells were inoculated into 384-well black CulturPlates (Perkin Elmer) at a density of 1000 cells/well in a volume of 40 μl. Following a 24-hour incubation at 37° C., 5% CO2 and ambient 02, cells were treated with compound (10 μl) in a final DMSO concentration of 0.5% (v/v). The microplates were then incubated for 72 hours (37° C., 5% CO2 and ambient O2). Cell Titer Fluor (Promega) was subsequently added (10 μl of 6× reagent) and mixed for 15 minutes at room temperature. The plates were then incubated for 30 minutes (37° C., 5% CO2 and ambient O2) and fluorescence was subsequently read on the Perkin Elmer Envision plate reader. EC50 values were calculated using a four-parameter logistic curve fit.

Read-outs that look alike come from different tables or passages of the source.

As for `Cc1cccc(CC(=O)Nc2ccc(C3CCN(c4nnc(C(=O)NCc5cc(C(F)(F)F)ccn5)s4)C3)nn2)n1` (stereo not shown) [Example 49, 5-(3-(6-(2-(6-methylpyridin-2-yl)acetamido)pyridazin-3-yl)pyrrolidin-1-yl)-N-((4-(trifluoromethyl)pyridin-2-yl)methyl)-1,3,4-thiadiazole-2-carboxamide], the IC50 in assay [1] is < 0.1 µM. Moreover, in assay [2] (Homo sapiens), the EC50 is < 0.1 µM.
For `O=C(Cc1ccccn1)Nc1ccc(N2CCC(c3nnc(NC(=O)Cc4ccccn4)s3)C2)nn1` (stereo not shown) [Example 9, 2-(pyridin-2-yl)-N-(6-(3-(5-(2-(pyridin-2-yl)acetamido)-1,3,4-thiadiazol-2-yl)pyrrolidin-1-yl)pyridazin-3-yl)acetamide], the IC50 in assay [1] was < 0.1 µM. In assay [2] (Homo sapiens), the EC50 lay within 0.5 to 5 µM.
With `O=C(Cc1cccc(OC(F)(F)F)c1)Nc1ccc(N2CCC(c3nnc(NC(=O)Cc4ccccc4F)s3)C2)nn1` (stereo not shown) [Example 20, 2-(2-fluorophenyl)-N-(5-(1-(6-(2-(3-(trifluoromethoxy)phenyl)acetamido)pyridazin-3-yl)pyrrolidin-3-yl)-1,3,4-thiadiazol-2-yl)acetamide 2,2,2-trifluoroacetate], in assay [1], the IC50 was < 0.1 µM. The EC50 in assay [2] (Homo sapiens) is 0.1 to 0.5 µM.
For `Cc1cc(OC2CC(F)(F)C2)cc(CC(=O)Nc2ccc(C3CCN(c4nnc(C(=O)NCc5cc(C(F)(F)F)ccn5)s4)C3)nn2)n1` (stereo not shown) [Example 52, 5-(3-(6-(2-(4-(3,3-difluorocyclobutoxy)-6-methylpyridin-2-yl)acetamido)pyridazin-3-yl)pyrrolidin-1-yl)-N-((4-(trifluoromethyl)pyridin-2-yl)methyl)-1,3,4-thiadiazole-2-carboxamide], the IC50 in assay [1] was < 0.1 µM. Further, the EC50 in assay [2] (Homo sapiens) is < 0.1 µM.
In the case of `O=C(Cc1ccccc1)Nc1ccc(N2CCCC(c3nnc(NC(=O)Cc4ccccn4)s3)C2)nn1` (stereo not shown) [Example 3, 2-Phenyl-N-(6-(3-(5-(2-(pyridin-2-yl)acetamido)-1,3,4-thiadiazol-2-yl)piperidin-1-yl)pyridazin-3-yl)acetamide], the IC50 in assay [1] is < 0.1 µM. Moreover, the EC50 in assay [2] (Homo sapiens) is 0.1 to 0.5 µM.
With `Cc1cccc(CNC(=O)c2nnc(N3CCC(c4ccc(NC(=O)Cc5cccc(C)n5)nn4)C3)s2)n1` (stereo not shown) [Example 50, 5-(3-(6-(2-(6-methylpyridin-2-yl)acetamido)pyridazin-3-yl)pyrrolidin-1-yl)-N-((6-methylpyridin-2-yl)methyl)-1,3,4-thiadiazole-2-carboxamide], in assay [1], the IC50 is < 0.1 µM. Besides, the EC50 in assay [2] (Homo sapiens) is < 0.1 µM.
For the molecule `O=C(Cc1ccccn1)Nc1ccc([C@@H]2CCN(c3nnc(C(=O)NCc4cc(C5CC5)ccn4)s3)C2)nn1` [Example 47, (R)-N-((4-cyclopropylpyridin-2-yl)methyl)-5-(3-(6-(2-(pyridin-2-yl)acetamido)pyridazin-3-yl)pyrrolidin-1-yl)-1,3,4-thiadiazole-2-carboxamide], the IC50 in assay [1] was < 0.1 µM. For the same molecule, the EC50 in assay [2] (Homo sapiens) was < 0.1 µM.
Take `Nc1nnc(C2CCCN(c3ccc(NC(=O)Cc4ccccc4)nn3)C2)s1` (stereo not shown) [Example 1, N-(6-(3-(5-Amino-1,3,4-thiadiazol-2-yl)piperidin-1-yl)pyridazin-3-yl)-2-phenylacetamide]: the IC50 in assay [1] fell in the range of 0.1 to 0.5 µM. For the same molecule, in assay [2] (Homo sapiens), the EC50 lay within 0.5 to 5 µM.
Consider `Nc1nnc(C2CCCN(c3nnc(NC(=O)Cc4cccc(OC(F)(F)F)c4)s3)C2)s1` (stereo not shown) [Example 16, N-(5-(3-(5-amino-1,3,4-thiadiazol-2-yl)piperidin-1-yl)-1,3,4-thiadiazol-2-yl)-2-(3-(trifluoromethoxy)phenyl)acetamide], for which the IC50 in assay [1] was in the range of 0.1 to 0.5 µM. Moreover, in assay [2] (Homo sapiens), the EC50 was 0.5 to 5 µM.
With `CNC(=O)c1cn(C2CCN(c3ccc(NC(=O)Cc4cccc(OC(F)(F)F)c4)nn3)C2)nn1` (stereo not shown) [Example 6, N-Methyl-1-(1-(6-(2-(3-(trifluoromethoxy)phenyl)acetamido)pyridazin-3-yl)pyrrolidin-3-yl)-1H-1,2,3-triazole-4-carboxamide], the IC50 in assay [1] fell in the range of 0.1 to 0.5 µM. In addition, the EC50 in assay [2] (Homo sapiens) fell in the range of 0.5 to 5 µM.
As to `CC(=O)Nc1nnc(C2CCCN(c3nnc(NC(=O)Cc4cccc(OC(F)(F)F)c4)s3)C2)s1` (stereo not shown) [Example 25, N-(5-(3-(5-acetamido-1,3,4-thiadiazol-2-yl)piperidin-1-yl)-1,3,4-thiadiazol-2-yl)-2-(3-(trifluoromethoxy)phenyl)acetamide], in assay [1], the IC50 is 0.1 to 0.5 µM. In assay [2] (Homo sapiens), the EC50 is 0.5 to 5 µM.
As to `CNC(=O)c1nnc(N2CCC(c3ccc(NC(=O)Cc4ccccn4)nn3)C2)s1` (stereo not shown) [Example 41, N-methyl-5-(3-(6-(2-(pyridin-2-yl)acetamido)pyridazin-3-yl)pyrrolidin-1-yl)-1,3,4-thiadiazole-2-carboxamide], the half-inhibitory concentration (IC50) in assay [1] is 0.1 to 0.5 µM. Moreover, the EC50 in assay [2] (Homo sapiens) was in the range of 0.1 to 0.5 µM.
With `Cn1cc(CC(=O)Nc2nnc(C3CCN(c4ccc(NC(=O)Cc5cccc(OC(F)(F)F)c5)nn4)C3)s2)cn1` (stereo not shown) [Example 18, 2-(1-methyl-1H-pyrazol-4-yl)-N-(5-(1-(6-(2-(3-(trifluoromethoxy)phenyl)acetamido)pyridazin-3-yl)pyrrolidin-3-yl)-1,3,4-thiadiazol-2-yl)acetamide 2,2,2-trifluoroacetate], the IC50 in assay [1] was < 0.1 µM. The EC50 in assay [2] (Homo sapiens) is 0.1 to 0.5 µM.
Regarding “2-(2-phenylthiazol-4-yl)-N-(5-(1-(6-(2-(3-(trifluoromethoxy)phenyl)acetamido)pyridazin-3-yl)pyrrolidin-3-yl)-1,3,4-thiadiazol-2-yl)acetamide [Example 30]”, in assay [1], the IC50 was < 0.1 µM. In addition, the EC50 in assay [2] is < 0.1 µM.
As for `CC(=O)Nc1nnc(C2CCN(c3ccc(NC(=O)Cc4cccc(OC(F)(F)F)c4)nn3)C2)s1` (stereo not shown) [Example 29, N-(6-(3-(5-acetamido-1,3,4-thiadiazol-2-yl)pyrrolidin-1-yl)pyridazin-3-yl)-2-(3-(trifluoromethoxy)phenyl)acetamide], the IC50 in assay [1] was < 0.1 µM. The EC50 in assay [2] (Homo sapiens) was 0.1 to 0.5 µM.
Take `O=C(Cc1ccccn1)Nc1nnc(C2CCCN(c3nnc(NC(=O)Cc4cccc(OC(F)(F)F)c4)s3)C2)s1` (stereo not shown) [Example 26, 2-(pyridin-2-yl)-N-(5-(1-(5-(2-(3-(trifluoromethoxy)phenyl)acetamido)-1,3,4-thiadiazol-2-yl)piperidin-3-yl)-1,3,4-thiadiazol-2-yl)acetamide]: in assay [1], the IC50 is < 0.1 µM. In assay [2] (Homo sapiens), the EC50 fell in the range of 0.1 to 0.5 µM.
Turning to “2-(thiazol-4-yl)-N-(5-(1-(6-(2-(3-(trifluoromethoxy)phenyl)acetamido)pyridazin-3-yl)pyrrolidin-3-yl)-1,3,4-thiadiazol-2-yl)acetamide [Example 31]”, the IC50 in assay [1] is < 0.1 µM. In addition, the EC50 in assay [2] was 0.1 to 0.5 µM.
As for `O=C(Cc1cccc(OC(F)(F)F)c1)Nc1ccc(N2CCCC(c3nnc(NC(=O)Cc4ccccn4)s3)C2)nn1` (stereo not shown) [Example 14, 2-(pyridin-2-yl)-N-(5-(1-(6-(2-(3-(trifluoromethoxy)phenyl)acetamido)pyridazin-3-yl)piperidin-3-yl)-1,3,4-thiadiazol-2-yl)acetamide], the IC50 in assay [1] is < 0.1 µM. Also, the EC50 in assay [2] (Homo sapiens) is < 0.1 µM.
Turning to `CC(=O)Nc1cn(C2CCN(c3ccc(NC(=O)Cc4cccc(OC(F)(F)F)c4)nn3)C2)nn1` (stereo not shown) [Example 11, N-(6-(3-(4-acetamido-1H-1,2,3-triazol-1-yl)pyrrolidin-1-yl)pyridazin-3-yl)-2-(3-(trifluoromethoxy)phenyl)acetamide], the IC50 in assay [1] fell in the range of 0.1 to 0.5 µM. The EC50 in assay [2] (Homo sapiens) fell in the range of 0.5 to 5 µM.
In the case of `O=C(Cc1ccccn1)Nc1ccc([C@@H]2CCN(c3nnc(C(=O)NCc4cc(C(F)(F)F)ccn4)s3)C2)nn1` [Example 44, (R)-5-(3-(6-(2-(pyridin-2-yl)acetamido)pyridazin-3-yl)pyrrolidin-1-yl)-N-((4-(trifluoromethyl)pyridin-2-yl)methyl)-1,3,4-thiadiazole-2-carboxamide], in assay [1], the IC50 is < 0.1 µM. For the same molecule, the EC50 in assay [2] (Homo sapiens) is < 0.1 µM.
